Laboratory results from patent US20130244929A1 (priority 2010, published 2013).
Like-named read-outs stand apart in the source and are kept apart here.

What was measured:
[1] = system: MB 5393 (COL), a methicillin-resistant S. aureus strain; test: Determination of minimum and synergistic inhibitory concentration; format: cell-based; settings: for SIC: presence of imipenem (4 μg/mL); for MIC: Staphylococcus aureus
Protocol: MB 5393 (COL), a methicillin-resistant S. aureus strain, was inoculated into Trypticase Soy Broth (TSB, BBL) and grown in a humidified incubator for 18 hours with rotary shaking at 220 rpm and kept on ice until used.
A quantity of imipenem (Merck Chemical Collection) was weighed out and dissolved into sterile 10 mM MOPS buffer at pH 7. This solution was diluted to 1600 μg/mL, 200 μg/mL, and 25 μg/mL and filter-sterilized through a 0.45 μm filter. From these solutions, seven 1:2 serial dilutions were prepared using sterile 10 mM MOPS buffer at pH 7. The final concentration ranges tested were 128 to 2 μg/mL, 16 to […], and 2 to 0.03 μg/mL. The solutions were kept refrigerated until used.
Test compounds (EXAMPLES 1-67) were prepared in sterile water or DMSO at a concentration of 3.2 mg/mL. From this solution, 11 serial 1:2 dilutions were prepared using sterile water. The final concentration range tested was 64 to 0.0313 μg/mL. The solutions were kept refrigerated until used.
Two-fold serial dilutions of test compounds were tested in the presence and absence of subinhibitory concentrations of imipenem (4 μg/mL) in 96-well U bottom microliter dishes in microbiological growth media. The plates were inoculated with bacterial cells to a final concentration of ˜5×10^5 CFU/mL. Test plates were incubated stationery at 37° C. for 22-24 hours.
After 22 hours of incubation, the Minimum inhibitory concentrations (MICs) were determined, defined as the lowest concentration of antibiotic that prevented all visible growth in the absence of imipenem. Synergistic inhibitory concentrations (SICs) were determined, defined as the lowest concentration of antibiotic that prevented all visible growth in the presence of imipenen.

SpsB = biological target: T1, SpsB (Staphylococcus aureus, UniProt P0A070); test: Inhibition of SpsB enzyme activity (fluorescence-based assay, bacterial membrane fraction); format: biochemical
T1 construct: using a bacterial membrane fraction as a source of SpsB; from tissue
T1 sequence (P0A070 1-191): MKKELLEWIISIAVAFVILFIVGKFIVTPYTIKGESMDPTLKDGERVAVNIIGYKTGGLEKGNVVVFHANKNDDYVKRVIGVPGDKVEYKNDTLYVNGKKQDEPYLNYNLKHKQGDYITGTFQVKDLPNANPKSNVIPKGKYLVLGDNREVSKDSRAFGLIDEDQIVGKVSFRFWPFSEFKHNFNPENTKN
Protocol: Signal peptidase enzyme activity was measured in a fluorescence-based assay using a bacterial membrane fraction as a source of SpsB (See Bruton et al., 2003, Eur J Med Chem 38:351-356). The SpsB substrate is a synthetic lipopeptide, decanoyl-K(DABCYL)-TPTAKA↓ASKKD-D(EDANS)—NH2 (prepared by JPT Peptide Technologies, Berlin, Germany). Assays were performed with 20 μM peptide substrate (Km≈5 μM) and reactions were initiated with enzyme addition (final protein concentration of 0.6 mg/mL). SpsB mediated cleavage of the peptide substrate was detected as an increase in fluorescence (excitation 340 nm/emission 460 nm).

[2] = MRSA COL, absence of imipenem, 22 hours, read-out: MIC

| SMILES | SIC ([1]; MRSA COL, 22 hours) | MIC [1, 2] | IC50 (SpsB) | MIC ([1]; MRSA, 22 h) | IC50 (SpsB; 20 μM peptide substrate, read-out: SpsB IC50) |
| --- | --- | --- | --- | --- | --- |
| CCCc1ccc(-c2ccc(C(=O)NCCC(=O)NC(CCCCN)C(=O)N(C)[C@@H]3C(=O)N[C@@H](C)C(=O)N[C@H](C(=O)O)Cc4ccc(OC)c(c4)-c4cc3ccc4OC)cc2)cc1.O=C(O)C(F)(F)F (stereo partly drawn) [EXAMPLE 1, 6-[[(7S,10S,13S)-13-carboxy-3,18-dimethoxy-10-methyl-8,11-dioxo-9,12-diazatricyclo[13.3.1.1^2,6]icosa-1(19),2(20),3,5,15,17-hexaen-7-yl](methyl)amino]-6-oxo-5-[(3-{[(4′-propylbiphenyl-4-yl)carbonyl]amino}propanoyl)amino]hexan-1-aminium trifluoroacetate] | H (H: SIC 0.062-1) | 1 to 8 µg/mL | 10 to 50 nM |  |  |
| CCCc1ccc(-c2ccc(C(=O)NCCC(=O)N3CCC[C@H]3C(=O)N(C)[C@@H]3C(=O)N[C@@H](C)C(=O)N[C@H](C(=O)O)Cc4ccc(O)c(c4)-c4cc3ccc4O)cc2)cc1 [EXAMPLE 12, (8S,11S,14S)-3,18-dihydroxy-11-methyl-14-(methyl{[(2S)-1-(3-{[(4′-propylbiphenyl-4-yl)carbonyl]amino}propanoyl)pyrrolidin-2-yl]carbonyl}amino)-10,13-dioxo-9,12-diazatricyclo[13.3.1.1^2,6]icosa-1(19),2(20),3,5,15,17-hexaene-8-carboxylic acid] | H (H: SIC 0.062-1) | > 8 µg/mL | 10 to 50 nM |  |  |
| C[C@@H]1NC(=O)[C@@H](N(C)C(=O)[C@H](CCCCN)NC(=O)CCNC(=O)c2ccc(CCCCCCCc3ccccc3)cc2)c2ccc(O)c(c2)-c2cc(ccc2O)C[C@@H](C(=O)O)NC1=O [EXAMPLE 38] | G (G: SIC <0.0625) |  | < 10 nM | < 1 µg/mL |  |
| C[C@@H]1NC(=O)[C@@H](N(C)C(=O)[C@H](CCCCN)NC(=O)CCNC(=O)c2ccc(-c3ccc(C4C5CC6CC(C5)CC4C6)cc3)cc2)c2ccc(O)c(c2)-c2cc(ccc2O)C[C@@H](C(=O)O)NC1=O (stereo partly drawn) [EXAMPLE 21] | G (G: SIC <0.0625) |  | < 10 nM | < 1 µg/mL |  |
| CCCCCCCCCc1ccc(-c2ncc(C(=O)NCCC(=O)N[C@@H](CCCCN)C(=O)N(C)[C@@H]3C(=O)N[C@@H](C)C(=O)N[C@H](C(=O)O)Cc4ccc(O)c(c4)-c4cc3ccc4O)cn2)cc1 [EXAMPLE 26] | G (G: SIC <0.0625) |  | < 10 nM | < 1 µg/mL |  |
| CCCCCCCCCc1ccc(-c2ccc3cc(C(=O)NCCC(=O)N[C@@H](CCCCN)C(=O)N(C)[C@@H]4C(=O)N[C@@H](C)C(=O)N[C@H](C(=O)O)Cc5ccc(O)c(c5)-c5cc4ccc5O)sc3c2)cc1 [EXAMPLE 47] | G (G: SIC <0.0625) |  | < 10 nM | 1 to 8 µg/mL |  |
| CCCCCCCCCc1ccc(-c2ccc(C(=O)NCCC(=O)N[C@@H](CCCCN)C(=O)N(C)[C@@H]3C(=O)N[C@@H](C)C(=O)N[C@H](C(=O)O)Cc4ccc(O)c(c4)-c4cc3ccc4O)cc2)cc1.O=C(O)C(F)(F)F [EXAMPLE 16, (5S)-6-[[(7S,10S,13S)-13-carboxy-3,18-dihydroxy-10-methyl-8,11-dioxo-9,12-diazatricyclo[13.3.1.1^2,6]icosa-1(19),2(20),3,5,15,17-hexaen-7-yl](methyl)amino]-5-[(3-{[(4′-nonylbiphenyl-4-yl)carbonyl]amino}propanoyl)amino]-6-oxohexan-1-aminium trifluoroacetate] | G (G: SIC <0.0625) | < 1 µg/mL | < 10 nM |  |  |
| CCCc1ccc(-c2ccc(C(=O)NCCC(=O)N[C@H](CCCCN)C(=O)N(C)[C@@H]3C(=O)N[C@@H](C)C(=O)N[C@H](CO)Cc4ccc(O)c(c4)-c4cc3ccc4O)cc2)cc1.O=C(O)C(F)(F)F (mixture of isomers) [EXAMPLE 5, (5R,S)-6-[[(7S,10S,13S)-3,18-dihydroxy-13-(hydroxymethyl)-10-methyl-8,11-dioxo-9,12-diazatricyclo[13.3.1.1^2,6]icosa-1(19),2(20),3,5,15,17-hexaen-7-yl](methyl)amino]-6-oxo-5-[(3-{[(4′-propylbiphenyl-4-yl)carbonyl]amino}propanoyl)amino]hexan-1-aminium trifluoroacetate] | H (H: SIC 0.062-1) | < 1 µg/mL |  |  | < 10 nM |
| CCCCCCCCCc1ccc(-c2ccc(C(=O)NCCC(=O)N[C@@H](CCCCN)C(=O)N(C)[C@@H]3C(=O)N[C@@H](C)C(=O)N[C@H](C(=O)O)Cc4ccc(O)c(c4)-c4cc3ccc4O)c3ccccc23)cc1 [EXAMPLE 52] | G (G: SIC <0.0625) |  | < 10 nM | 1 to 8 µg/mL |  |
| CCCCCCCc1ccc(-c2ccc(C(=O)NCCC(=O)N[C@@H](CCCCN)C(=O)N(C)[C@@H]3C(=O)N[C@@H](C)C(=O)N[C@H](C(=O)O)Cc4ccc(O)c(c4)-c4cc3ccc4O)cc2)cc1 [EXAMPLE 29] | G (G: SIC <0.0625) |  | < 10 nM | < 1 µg/mL |  |
| CCCCCCCCCc1ccc(-c2ncc(C(=O)NCCC(=O)N[C@@H](CCCCN(C)C)C(=O)N(C)[C@@H]3C(=O)N[C@@H](C)C(=O)N[C@H](C(=O)O)Cc4ccc(O)c(c4)-c4cc3ccc4O)cn2)cc1 [EXAMPLE 34] | G (G: SIC <0.0625) |  | < 10 nM | < 1 µg/mL |  |
| CCCc1ccc(-c2ccc(C(=O)NCCC(=O)N[C@@H](CCCCNC=N)C(=O)N(C)[C@@H]3C(=O)N[C@@H](C)C(=O)N[C@H](C(=O)O)Cc4ccc(O)c(c4)-c4cc3ccc4O)cc2)cc1 [EXAMPLE 48] | H (H: SIC 0.062-1) |  | < 10 nM | 1 to 8 µg/mL |  |
| C[C@@H]1NC(=O)[C@@H](N(C)C(=O)[C@H](CCCCN)NC(=O)CCNC(=O)c2ccc(CCCCCCCCc3ccccc3)cc2)c2ccc(O)c(c2)-c2cc(ccc2O)C[C@@H](C(=O)O)NC1=O.O=C(O)C(F)(F)F [EXAMPLE 15, (5S)-6-[[(7S,10S,13S)-13-carboxy-3,18-dihydroxy-10-methyl-8,11-dioxo-9,12-diazatricyclo[13.3.1.12,6]icosa-1(19),2(20),3,5,15,17-hexaen-7-yl](methyl)amino]-6-oxo-5-[(3-{[4-(8-phenyloctyl)benzoyl]amino}propanoyl)amino]hexan-1-aminium] | G (G: SIC <0.0625) | < 1 µg/mL | < 10 nM |  |  |
| CCCCCCCCCCc1ccc2cc(C(=O)NCCC(=O)N[C@@H](CCCCN)C(=O)N(C)[C@@H]3C(=O)N[C@@H](C)C(=O)N[C@H](C(=O)O)Cc4ccc(O)c(c4)-c4cc3ccc4O)ccc2c1.O=C(O)C(F)(F)F [EXAMPLE 17, (5S)-6-[[(7S,10S,13S)-13-carboxy-3,18-dihydroxy-10-methyl-8,11-dioxo-9,12-diazatricyclo[13.3.1.1^2,6]icosa-1(19),2(20),3,5,15,17-hexaen-7-yl](methyl)amino]-5-({3-[(6-decyl-2-naphthoyl)amino]propanoyl}amino)-6-oxohexan-1-aminium trifluoroacetate] | G (G: SIC <0.0625) | < 1 µg/mL | < 10 nM |  |  |
| C[C@@H]1NC(=O)[C@@H](N(C)C(=O)C(CCCCN)NC(=O)CCNC(=O)c2ccc(-c3ccc(-c4ccccc4)cc3)cc2)c2ccc(O)c(c2)-c2cc(ccc2O)C[C@@H](C(=O)O)NC1=O.O=C(O)C(F)(F)F (stereo partly drawn) [EXAMPLE 7, 6-[[(7S,10S,13S)-13-carboxy-3,18-dihydroxy-10-methyl-8,11-dioxo-9,12-diazatricyclo[13.3.1.1^2,6]icosa-1(19),2(20),3,5,15,17-hexaen-7-yl](methyl)amino]-6-oxo-5-({3-[(1,1′:4′,1″-terphenyl-4-ylcarbonyl)amino]propanoyl}amino)hexan-1-aminium trifluoroacetate] | H (H: SIC 0.062-1) | < 1 µg/mL | 10 to 50 nM |  |  |
| CCCc1ccc(-c2ccc(C(=O)NCCC(=O)NC(CCCCN)C(=O)N(C)[C@@H]3C(=O)N[C@@H](C)C(=O)N[C@H](C(N)=O)Cc4ccc(O)c(c4)-c4cc3ccc4O)cc2)cc1.O=C(O)C(F)(F)F (stereo partly drawn) [EXAMPLE 6] | H (H: SIC 0.062-1) |  |  | < 1 µg/mL |  |
| CCCc1ccc(-c2ccc(C(=O)NCCC(=O)NC(CCCCN)C(=O)N(C)[C@@H]3C(=O)N[C@@H](C)C(=O)N[C@H](C(N)=O)Cc4ccc(O)c(c4)-c4cc3ccc4O)cc2)cc1.O=C(O)C(F)(F)F (stereo partly drawn) [EXAMPLE 6, trifluoroacetate] |  |  | 10 to 50 nM |  |  |
